Source: ChEMBL document CHEMBL1201862, “PubChem BioAssay data set” (2004)
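In this assay, cells in 96-well plates receive the compound at five concentrations for 48 hours. Endpoints are linearly interpolated between the surrounding concentrations. GI50: concentration for 50% inhibition of growth.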 The source made the active and inactive calls. Rule as the data show it: active = GI50 up to about 1.1 µM and inactive = higher.

Tests used:
Assay in all cases: NCI-60 cell line screen, 48 h
A549 = tested on: A549
DU-145 = tested on: DU-145
HCC 2998 = tested on: HCC 2998
HCT-116 = tested on: HCT-116
HL-60 = tested on: HL-60
K562 = tested on: K562
KM12 = tested on: KM12
M14 = tested on: M14
MDA-MB-231 = tested on: MDA-MB-231
MDA-MB-435 = tested on: MDA-MB-435
MOLT-4 = tested on: MOLT-4
OVCAR-3 = tested on: OVCAR-3
OVCAR-5 = tested on: OVCAR-5
SF-268 = tested on: SF-268
SF-295 = tested on: SF-295
SN12C = tested on: SN12C
SNB-75 = tested on: SNB-75
T47D = tested on: T47D
TK-10 = tested on: TK-10
UACC-62 = tested on: UACC-62

Row | Compound | GI50 (A549) | GI50 (DU-145) | GI50 (HCC 2998) | GI50 (HCT-116) | GI50 (HL-60) | GI50 (K562) | GI50 (KM12) | GI50 (M14) | GI50 (MDA-MB-231) | GI50 (MDA-MB-435) | GI50 (MOLT-4) | GI50 (OVCAR-3) | GI50 (OVCAR-5) | GI50 (SF-268) | GI50 (SF-295) | GI50 (SN12C) | GI50 (SNB-75) | GI50 (T47D) | GI50 (TK-10) | GI50 (UACC-62)
1 | CCOC(=O)/C=C(\C(=O)OCC)n1cc(C)c(=O)n(Cc2cnnn2COCCOC(C)=O)c1=O | 21.6 µM (inactive) | 21.2 µM (inactive) | 16.6 µM (inactive) | 9.42 µM (inactive) | 3.15 µM (inactive) | 3.4 µM (inactive) | 16.4 µM (inactive) | 20.7 µM (inactive) | 19.8 µM (inactive) | 8.97 µM (inactive) | 2.57 µM (inactive) | 11.7 µM (inactive) | 17.1 µM (inactive) | 15.5 µM (inactive) | 25.8 µM (inactive) | 16 µM (inactive) | 18.4 µM (inactive) | 5.78 µM (inactive) | 4.91 µM (inactive) | 15.4 µM (inactive)
2 | CS(=O)(=O)OCCN(CCOS(C)(=O)=O)c1ccc(/C=N/c2ccc3oc(=O)ccc3c2)cc1 | 3.47 µM (inactive) | 0.968 µM (active) | 1.61 µM (inactive) | 37.7 µM (inactive) | 1.71 µM (inactive) | 24.6 µM (inactive) | 8.41 µM (inactive) | 2.82 µM (inactive) | 32.9 µM (inactive) | 11.1 µM (inactive) | 0.318 µM (active) | 3.58 µM (inactive) | 3.24 µM (inactive) | 5.13 µM (inactive) | 0.933 µM (active) | 6.78 µM (inactive) | 2.43 µM (inactive) | 5.6 µM (inactive) | 2.45 µM (inactive) | 1.8 µM (inactive)
3 | CC(C)(Br)C(Br)CCC1(C(Br)CBr)CO1 (stereo not given) | > 10 µM (inactive) | > 10 µM (inactive) | > 10 µM (inactive) | > 10 µM (inactive) | > 10 µM (inactive) | > 10 µM (inactive) | > 10 µM (inactive) | > 10 µM (inactive) | > 10 µM (inactive) | > 10 µM (inactive) | > 10 µM (inactive) | > 10 µM (inactive) | > 10 µM (inactive) | > 10 µM (inactive) | > 10 µM (inactive) | > 10 µM (inactive) | > 10 µM (inactive) | > 10 µM (inactive) | > 10 µM (inactive) | > 10 µM (inactive)
4 | COC(=O)CN1Cc2cc(C)cc(c2O)CN(CC(=O)OC)Cc2cc(C)cc(c2O)CN(CC(=O)OC)Cc2cc(C)cc(c2O)CN(CC(=O)OC)Cc2cc(C)cc(c2O)C1 | 18.4 µM (inactive) | 8.17 µM (inactive) | 13.6 µM (inactive) | 11.1 µM (inactive) | 3.03 µM (inactive) | 21.8 µM (inactive) | 32.6 µM (inactive) | 4.92 µM (inactive) | 26.7 µM (inactive) | 26.9 µM (inactive) | 9.62 µM (inactive) | 7.05 µM (inactive) | 9.46 µM (inactive) | 9.89 µM (inactive) | 17.5 µM (inactive) | 21.5 µM (inactive) | 12.4 µM (inactive) | 13.2 µM (inactive) | 15.4 µM (inactive) | 39.6 µM (inactive)
5 | COc1ccc(/C=C(\C(=O)OCC(C)C)c2ccc(OC)c(OC)c2)cc1OC | > 100 µM (inactive) | > 100 µM (inactive) | > 100 µM (inactive) | > 100 µM (inactive) | > 100 µM (inactive) | > 100 µM (inactive) | > 10 µM (inactive) | 32.5 µM (inactive) | 31 µM (inactive) | > 100 µM (inactive) | > 100 µM (inactive) | > 100 µM (inactive) | > 100 µM (inactive) | > 100 µM (inactive) | 69.5 µM (inactive) | > 100 µM (inactive) | 47.2 µM (inactive) | > 100 µM (inactive) | > 100 µM (inactive) | > 100 µM (inactive)
6 | CC(=O)OCC1OC(n2c(-c3ccc(C)cc3)cc(-c3ccccc3)c(C#N)c2=S)C(OC(C)=O)C(OC(C)=O)C1OC(C)=O (stereo not given) | > 100 µM (inactive) | > 100 µM (inactive) | > 100 µM (inactive) | > 100 µM (inactive) | > 100 µM (inactive) | > 100 µM (inactive) | > 100 µM (inactive) | > 100 µM (inactive) | > 100 µM (inactive) | > 100 µM (inactive) | > 100 µM (inactive) | > 100 µM (inactive) | > 100 µM (inactive) | > 100 µM (inactive) | > 100 µM (inactive) | > 100 µM (inactive) | 32.7 µM (inactive) | > 100 µM (inactive) | > 100 µM (inactive) | > 100 µM (inactive)
7 | CC(C)(C)C1=NN=C2c3ccccc3C(=O)C21 (stereo not given) | 45.1 µM (inactive) | 31.3 µM (inactive) | 4.6 µM (inactive) | > 100 µM (inactive) | 34.3 µM (inactive) | 35.2 µM (inactive) | 18.9 µM (inactive) | 76.6 µM (inactive) | 40.4 µM (inactive) | 41.6 µM (inactive) | 22.4 µM (inactive) | 37.6 µM (inactive) | 51.8 µM (inactive) | 58.9 µM (inactive) | 39.1 µM (inactive) | 42.6 µM (inactive) | 79.6 µM (inactive) | > 100 µM (inactive) | 53 µM (inactive) | 27.4 µM (inactive)
8 | Cc1ccc(S(=O)(=O)n2cc(C#N)c(C#N)c2)cc1 | 24.7 µM (inactive) | 31.4 µM (inactive) | 24.3 µM (inactive) | 31 µM (inactive) | 26.5 µM (inactive) | 33.3 µM (inactive) | 31 µM (inactive) | 22.4 µM (inactive) | 42.6 µM (inactive) | 19.8 µM (inactive) | 31.8 µM (inactive) | 22.5 µM (inactive) | 27.9 µM (inactive) | 26.6 µM (inactive) | 23 µM (inactive) | 29.1 µM (inactive) | 32.7 µM (inactive) | 26.4 µM (inactive) | 38.3 µM (inactive) | 17.3 µM (inactive)
9 | Cc1ccc(C(=O)/C=C2/Nc3ccc([N+](=O)[O-])cc3N/C2=C/C(=O)c2ccc(C)cc2)cc1 | > 100 µM (inactive) | > 100 µM (inactive) | > 100 µM (inactive) | > 100 µM (inactive) | 34.7 µM (inactive) | 85.5 µM (inactive) | > 100 µM (inactive) | > 100 µM (inactive) | 29.1 µM (inactive) | > 100 µM (inactive) | > 100 µM (inactive) | > 100 µM (inactive) | > 100 µM (inactive) | 52.4 µM (inactive) | 41.3 µM (inactive) | > 100 µM (inactive) | 10.6 µM (inactive) | > 100 µM (inactive) | > 100 µM (inactive) | 24.7 µM (inactive)
10 | Cc1ccc(S(=O)(=O)NNCNC(=O)c2ccccc2)cc1 | > 100 µM (inactive) | > 100 µM (inactive) | > 100 µM (inactive) | > 100 µM (inactive) | 16.4 µM (inactive) | 64.4 µM (inactive) | 85.1 µM (inactive) | > 100 µM (inactive) | > 100 µM (inactive) | 32.4 µM (inactive) | 24.2 µM (inactive) | > 100 µM (inactive) | > 100 µM (inactive) | > 100 µM (inactive) | > 100 µM (inactive) | > 100 µM (inactive) | > 100 µM (inactive) | 83.4 µM (inactive) | > 100 µM (inactive) | 71.6 µM (inactive)
